Laboratory results reported in US20220409614A1, “TREATING BEHAVIORAL AND PSYCHOLOGICAL SYMPTOMS IN DEMENTIA PATIENTS” (SUVEN LIFE SCIENCES LIMITED, priority 2019, published 2022).
Like-named read-outs stand apart in the source and are kept apart here.

What was measured:
[1] = cited from earlier work
[2] = short-term treatment; cited from earlier work
[3] = test system: patients with AD; conditions: citalopram treatment group; cited from earlier work
[4] = test system: subjects with moderate AD; test: Phase 2 study in moderate AD, ADAS-Cog 11 assessment; format: in vivo, humans; conditions: for change from baseline in ADAScog-11 scores vs placebo: 50 mg
Description: The study consisted of a 2 to 4-week screening period, followed by a 26-week double-blind treatment period and a 4-week single-blind placebo washout period. […] Population: The study population included male or female subjects, 50 to 85 years of age, with moderate dementia due to probable AD (MMSE 12-20, both inclusive) based on the National Institute of Neurological and Communicative Diseases and Stroke/Alzheimer's Disease and Related Disorders Association ([…]) criteria, diagnosed at least 1 year prior to the study and receiving stable doses for at least 3 months of donepezil HCl (10 mg qd) and either memantine HCl (10 mg bid) or […]® (28 mg memantine HCl extended-release qd) or the combination therapy, NamzaricTM (28 mg memantine HCl extended-release/10 mg donepezil HCl) qd. […] Throughout the study, all subjects continued to receive donepezil HCl (10 mg qd) and memantine HCl (10 mg bid) or […]® (28 mg memantine HCl extended-release qd) or the combination therapy, NamzaricTM (28 mg memantine HCl extended-release/10 mg donepezil HCl) qd. […] During the washout period, all subjects were received placebo in addition to donepezil HCl and memantine HCl. The Alzheimer's Disease Assessment Scale-Cognitive Subscale (ADAS-Cog) was developed to assess the level of cognitive dysfunction in AD. It is also used for assessing the efficacy of anti-dementia treatments. The ADAScog-11 is a brief measure of cognition, including word recall, commands, constructional praxis, naming objects and fingers, ideational praxis, orientation, word recognition task, remembering test instructions, spoken language ability, word-finding difficulty, and comprehension of spoken language. The test is scored by an administrator who adds up points for the errors in each task for a total score ranging from 0 to 70. The greater the dysfunction, the greater the score. A score of 70 represents the most severe impairment. Data was analyzed using a mixed effects model for repeated measures (MMRM). The model included fixed categorical factors for treatment, week, treatment-by-week interaction, and APO-E status (carrier-one allele, carrier-two alleles, and non-carrier), as well as a continuous covariate of baseline score, the baseline score-by-week interaction, age, and baseline MMSE score. In subgroup analysis, stratification was based on the baseline symptoms and/or symptom emergence.

[5] = test system: subjects with moderate AD; test: Phase 2 study in moderate AD, NPI-12 (Neuropsychiatric Inventory) assessment; format: in vivo, humans; conditions: for effect on NPI domains as measured by the NPI-12 scale: overall statement
Description: The study consisted of a 2 to 4-week screening period, followed by a 26-week double-blind treatment period and a 4-week single-blind placebo washout period. […] Population: The study population included male or female subjects, 50 to 85 years of age, with moderate dementia due to probable AD (MMSE 12-20, both inclusive) based on the National Institute of Neurological and Communicative Diseases and Stroke/Alzheimer's Disease and Related Disorders Association ([…]) criteria, diagnosed at least 1 year prior to the study and receiving stable doses for at least 3 months of donepezil HCl (10 mg qd) and either memantine HCl (10 mg bid) or […]® (28 mg memantine HCl extended-release qd) or the combination therapy, NamzaricTM (28 mg memantine HCl extended-release/10 mg donepezil HCl) qd. […] Throughout the study, all subjects continued to receive donepezil HCl (10 mg qd) and memantine HCl (10 mg bid) or […]® (28 mg memantine HCl extended-release qd) or the combination therapy, NamzaricTM (28 mg memantine HCl extended-release/10 mg donepezil HCl) qd. […] During the washout period, all subjects were received placebo in addition to donepezil HCl and memantine HCl. The NPI is a 12-item structured interview with a caregiver designed to assess behavioral disturbances in patients with dementia. The NPI comprises 10 behavioral (hallucinations, delusions, agitation/aggression, dysphoria/depression, anxiety, irritability, disinhibition, euphoria/elation, apathy and aberrant motor behavior), and neurovegetative items (sleep and night-time behavior change, appetite and eating change). The behavioral domains are assessed in terms of frequency, severity and distress. Each item consists of a screening question and several sub-questions which are rated no (not present) or yes (present). Each item is then rated for frequency (a 4-point scale from 1 [occasionally] to 4 [very frequently]), severity (a 3-point scale from 1 [mild] to 3 [marked]), and caregiver distress (a 6-point scale from 0 [not at all] to 5 [very severely or extremely]). The total score 12 items of the frequency and severity ratings range from 0 to 144 and the total score 12 items of caregiver distress ranges from 0 to 60. The NPI was administered to the subject's caregiver and scored by a qualified, trained rater at baseline and Weeks 4, 13 and 26. Data was analyzed using a mixed effects model for repeated measures (MMRM). The model included fixed categorical factors for treatment, week, treatment-by-week interaction, and APO-E status (carrier-one allele, carrier-two alleles, and non-carrier), as well as a continuous covariate of baseline score, the baseline score-by-week interaction, age, and baseline MMSE score. In subgroup analysis, stratification was based on the baseline symptoms and/or symptom emergence.

[6] = test system: subjects with moderate AD; test: Phase 2 study in moderate AD, safety and tolerability assessment; set-up: species or system humans; conditions: in vivo
Method: The study consisted of a 2 to 4-week screening period, followed by a 26-week double-blind treatment period and a 4-week single-blind placebo washout period.
Throughout the study, all subjects continued to receive donepezil HCl (10 mg qd) and memantine HCl (10 mg bid) or Namenda XR® (28 mg memantine HCl extended-release qd) or the combination therapy, Namzaric™ (28 mg memantine HCl extended-release/10 mg donepezil HCl) qd.
The safety assessed by monitoring adverse events, physical examinations, vital signs, clinical laboratory tests and electrocardiograms.

[7] = baseline domain score ≥1, mITT, 50 mg, Week 4
[8] = baseline domain score ≥1, mITT, 50 mg, Week 13
[9] = baseline domain score ≥1, mITT, 50 mg, Week 26
[10] = baseline domain score ≥1, mITT, 100 mg, Week 4
[11] = baseline domain score ≥1, mITT, 100 mg, Week 13
[12] = baseline domain score ≥1, mITT, 100 mg, Week 26

CC(C)COc1ccc(CNC(=O)N(Cc2ccc(F)cc2)C2CCN(C)CC2)cc1 [Pimavanserin]
effect on NPI-NH psychosis scale ([1]; week 6): statistically significant effect | effect on NPI-NH psychosis scale ([1]; week 12): no effect was evident

Cc1nc2n(c(=O)c1CCN1CCC(c3noc4cc(F)ccc34)CC1)CCCC2 [risperidone]
symptomatic benefit in BPSD [2]: modest symptomatic benefit

O=C1CCc2ccc(OCCCCN3CCN(c4cccc(Cl)c4Cl)CC3)cc2N1 [aripiprazole]
symptomatic benefit in BPSD [2]: modest symptomatic benefit

CN(C)CCCC1(c2ccc(F)cc2)OCc2cc(C#N)ccc21 (stereo not drawn) [Citalopram]
QT interval [3]: QT interval prolongation | cognition [3]: Worsening of cognition

COc1ccc2c(c1)c(CN1CCN(C)CC1)cn2S(=O)(=O)c1ccccc1Br [masupirdine, 1-[(2-bromophenyl)sulfonyl]-5-methoxy-3-[(4-methyl-1-piperazinyl)methyl]-1H-indole]
change from baseline in ADAScog-11 scores vs placebo ([4]; baseline delusion and/or hallucination score ≥1, mITT, Week 26): statistically significant treatment difference | change from baseline in ADAScog-11 scores vs placebo ([4]; baseline delusion and/or hallucination score ≥1, treatment added as covariate): statistically significant treatment difference | change from baseline in ADAScog-11 scores vs placebo ([4]; baseline delusion and/or hallucination score ≥1, treatment and time added as covariates): statistically significant treatment differences | cognition as assessed by ADAS-Cog 11 scale ([4]; subjects with delusions and hallucinations (baseline symptoms)): significantly improved cognition | change from baseline at Week 26 in ADAS-Cog 11 score (primary efficacy endpoint) ([4]; vs placebo, whole study population): did not show significant treatment advantage in cognition over placebo | change from baseline in mean NPI-12 scores vs placebo ([5]; 50 mg, Week 4): statistically significant treatment differences | change from baseline in mean agitation/aggression domain scores of NPI-12 vs placebo ([5]; 50 mg, Week 26, no subgroup): statistically significant treatment difference | mean NPI-12 scores ([5]; Week 13, all 3 treatment arms): remained similar to baseline | mean NPI-12 scores ([5]; Week 26, masupirdine dose groups): remained similar to baseline | change from baseline in NPI-12 domain sleep and nighttime behavior vs placebo ([5]; baseline domain score ≥1, 50 mg, Week 26): statistically significant treatment differences | change from baseline in NPI-12 domain sleep and nighttime behavior vs placebo ([5]; baseline domain score ≥1, 100 mg, Week 13): statistically significant treatment difference | change from baseline in NPI-12 domain sleep and nighttime behavior vs placebo ([5]; baseline domain score ≥1, 100 mg, Week 26): statistically significant treatment differences | change from baseline in NPI-12 domain aberrant motor behavior vs placebo [5, 7]: statistically significant treatment differences | change from baseline in NPI-12 domain delusions and/or hallucinations vs placebo [5, 7]: statistically significant treatment difference | change from baseline in NPI-12 domain sleep and nighttime behavior vs placebo [5, 7]: statistically significant treatment difference | change from baseline in mean euphoria/elation scores vs placebo [5, 7]: statistically significant treatment differences | extended composite NPI-12 score domain (agitation/aggression, aberrant motor behavior and sleep and nighttime behavior disorders) vs placebo [5, 7]: statistically significant treatment differences | change from baseline in NPI-12 domain aberrant motor behavior vs placebo [5, 8]: statistically significant treatment difference | change from baseline in NPI-12 domain delusions and/or hallucinations vs placebo [5, 8]: statistically significant treatment difference | change from baseline in mean agitation/aggression scores vs placebo [5, 8]: statistically significant treatment difference | change from baseline in mean euphoria/elation scores vs placebo [5, 8]: statistically significant treatment differences | change from baseline in mean agitation/aggression scores vs placebo [5, 9]: statistically significant treatment difference | change from baseline in mean euphoria/elation scores vs placebo [5, 9]: statistically significant treatment differences | extended composite NPI-12 score domain (agitation/aggression, aberrant motor behavior and sleep and nighttime behavior disorders) vs placebo [5, 9]: statistically significant treatment differences | change from baseline in NPI-12 domain delusions and/or hallucinations vs placebo [5, 10]: statistically significant treatment difference | change from baseline in NPI-12 domain sleep and nighttime behavior vs placebo [5, 10]: statistically significant treatment difference | change from baseline in mean agitation/aggression scores vs placebo [5, 11]: statistically significant treatment difference | extended composite NPI-12 score domain (agitation/aggression, aberrant motor behavior and sleep and nighttime behavior disorders) vs placebo [5, 11]: statistically significant treatment differences | change from baseline in NPI-12 domain disinhibition vs placebo [5, 12]: statistically significant treatment difference | extended composite NPI-12 score domain (agitation/aggression, aberrant motor behavior and sleep and nighttime behavior disorders) vs placebo [5, 12]: statistically significant treatment differences | change from baseline in mean agitation/aggression scores vs placebo ([5]; baseline domain score ≥1, mITT, treatment and time added as covariates): statistically significant treatment differences | extended composite NPI-12 score domain (agitation/aggression, aberrant motor behavior and sleep and nighttime behavior disorders) vs placebo ([5]; baseline domain score ≥1, treatment added as covariate, 50 mg): statistically significant treatment difference | change from baseline in NPI-12 domain sleep and nighttime behavior vs placebo ([5]; baseline domain score ≥1, treatment added as covariate, 50 mg, Week 26): statistically significant treatment difference | change from baseline in NPI-12 domain delusions and/or hallucinations vs placebo ([5]; baseline domain score ≥1, treatment added as covariate, 100 mg): statistically significant treatment difference | change from baseline in NPI-12 domain sleep and nighttime behavior vs placebo ([5]; baseline domain score ≥1, treatment added as covariate, 100 mg, Week 26): statistically significant treatment difference | change from baseline in NPI-12 domain delusions and/or hallucinations vs placebo ([5]; baseline domain score ≥1, treatment and time added as covariates): statistically significant treatment differences | change from baseline in mean agitation/aggression scores vs placebo ([5]; baseline domain score ≥3, mITT, 50 mg, Week 13): statistically significant treatment difference | change from baseline in mean agitation/aggression scores vs placebo ([5]; baseline domain score ≥3, mITT, 50 mg, Week 26): statistically significant treatment difference | change from baseline in mean agitation/aggression scores vs placebo ([5]; baseline domain score ≥3, mITT, 100 mg, Week 13): statistically significant treatment difference | change from baseline in mean agitation/aggression scores vs placebo ([5]; baseline domain score ≥3, treatment added as covariate, 50 mg, Week 26): statistically significant treatment difference | change from baseline in mean agitation/aggression scores vs placebo ([5]; baseline domain score ≥3, treatment and time added as covariates): statistically significant treatment differences | effect on NPI domains as measured by the NPI-12 scale [5]: beneficial effects | effect on NPI domains as measured by the NPI-12 scale ([5]; listed as Masupirdine): significant treatment effect | behavioral and psychological symptoms as assessed by NPI-12 subscale scores ([5]; subgroup analyses): significant improvement | safety and tolerability [6]: safe and well tolerated with no significant adverse events
